Data published in patent US8580852B2, “2-oxamide inhibitors of phospholipase A2 activity and cellular arachidonate release based on dipeptides and pseudopeptides” (The Regents of the University of California, priority 2009, dated 2013).
Where “and” joins values, the source holds several entries; their conditions need not be identical. Equal entries are not always repeated. Where two headings read alike, the source gives them in different places.

What was measured:
GIVA cPLA2 [1] = molecular target: T1, GIVA cPLA2 (Homo sapiens, UniProt P47712); test: In vitro PLA2 mixed micellar assay (modified Dole assay), GIVA cPLA2; assay type: biochemical; details: for GIVA cPLA2 X1(50): mixed micelles, mole fraction of inhibitor in total substrate interface required to inhibit the enzyme by 50%; for GIVA cPLA2 % inhibition: at 0.091 mole fraction of inhibitor, n = 3
T1 sequence (P47712 1-749): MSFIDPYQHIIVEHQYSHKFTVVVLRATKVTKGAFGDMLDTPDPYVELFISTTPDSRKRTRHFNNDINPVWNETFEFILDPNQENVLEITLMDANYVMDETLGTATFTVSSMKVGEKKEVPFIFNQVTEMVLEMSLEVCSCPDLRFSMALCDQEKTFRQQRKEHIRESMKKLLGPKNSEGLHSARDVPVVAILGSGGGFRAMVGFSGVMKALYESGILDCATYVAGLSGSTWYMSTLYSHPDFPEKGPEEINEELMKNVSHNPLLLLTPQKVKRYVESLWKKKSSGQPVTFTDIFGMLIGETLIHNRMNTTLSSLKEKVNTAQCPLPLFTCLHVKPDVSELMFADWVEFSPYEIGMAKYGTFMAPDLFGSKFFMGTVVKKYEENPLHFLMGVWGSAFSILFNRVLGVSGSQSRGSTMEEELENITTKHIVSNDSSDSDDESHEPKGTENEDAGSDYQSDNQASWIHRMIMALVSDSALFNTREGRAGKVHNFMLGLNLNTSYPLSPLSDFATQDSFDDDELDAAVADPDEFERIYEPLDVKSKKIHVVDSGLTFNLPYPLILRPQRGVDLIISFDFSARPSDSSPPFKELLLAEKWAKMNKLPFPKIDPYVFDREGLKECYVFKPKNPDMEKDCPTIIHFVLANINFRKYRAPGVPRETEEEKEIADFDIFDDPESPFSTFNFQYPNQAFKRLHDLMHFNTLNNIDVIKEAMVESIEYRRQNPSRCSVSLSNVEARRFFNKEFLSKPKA
Experimental: (§1) All the inhibitors synthesized in this work were tested for inhibition of GIVA cPLA2, GVIA iPLA2 and GV sPLA2 using mixed micellar assays. Details for the assays have been published previously. The results of the inhibition are presented in Table 1 using either percent inhibition or XI(50) values. Initially, the percent inhibition of each PLA2 at 0.091 mole fraction of inhibitor was determined. XI(50) values were estimated when the percent inhibition was higher than 90%. The XI(50) is the mole fraction of the inhibitor in the total substrate interface required to inhibit the enzyme by 50%. Data for the reference 2-oxoamide inhibitors AX006 and AX048 are included in Table 1 for comparison. Phospholipase A2 activity was determined using the previously described modified Dole assay with buffer and substrate conditions optimized for each enzyme as described previously: (i) GIVA cPLA2 substrate mixed-micelles were composed of 400 μM Triton […]-labeled PAPC, and 3 μM PIP2 in buffer containing 100 mM HEPES pH 7.5, 90 μM CaCl2, 2 mM DTT and 0.1 mg/ml BSA; (ii) GVI iPLA2 substrate mixed-micelles were composed of either (a) 400 μM Triton X-100, 99 μM DPPC, and 1.5 μM ^14C-labeled DPPC in buffer containing 200 mM HEPES pH 7.0, 1 mM ATP, 2 mM DTT and 0.1 mg/ml BSA or (b) 400 μM Triton X-100, 98.3 μM PAPC, and 1.7 μM ^14C-labeled PAPC in buffer containing 100 mM HEPES pH 7.5, 2 mM ATP and 4 mM DTT; and (iii) GV sPLA2 substrate mixed-micelles were composed of 400 μM Triton X-100, 99 μM DPPC, and 1.5 μM ^14C-labeled DPPC in buffer containing 50 mM Tris pH 8.0 and 5 mM CaCl2. Initial screening of compounds at 0.091 mole fraction inhibitor in mixed-micelles was carried out. Compounds displaying 25% or less inhibition had no inhibitory affect (designated N.D.). The average percent inhibition (and standard error, n=3) for compounds displaying more than 25% and less than 90% enzyme inhibition is reported herein. If the percent inhibition was greater than 90%, then its XI(50) was determined by plotting percent inhibition vs. inhibitor molar fraction (7 points; typically 0.005 to 0.091 mole fraction). Inhibition curves were modeled in Graphpad Prism using either a linear (x, y intercept=0) or non-linear regression (one-site binding model-hyperbola, BMAX=100) to calculate the reported XI(50) and associated error values.

GV sPLA2 = molecular target: T2, GV sPLA2 (Homo sapiens, UniProt P39877); test: In vitro PLA2 mixed micellar assay (modified Dole assay), GV sPLA2; assay type: biochemical; details: at 0.091 mole fraction of inhibitor, n = 3
T2 sequence (P39877 21-138): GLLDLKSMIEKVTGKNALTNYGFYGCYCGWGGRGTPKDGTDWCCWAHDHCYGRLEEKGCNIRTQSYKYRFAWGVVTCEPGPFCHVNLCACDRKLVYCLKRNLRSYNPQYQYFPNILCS
Experimental: as §1

RAW 264.7 macrophages = test: Inhibition of Kdo2-Lipid A stimulated arachidonic acid release; assay type: cell-based; details: for inhibition at 25 µM / IC50: Mus musculus; for inhibition at 25 µM: RAW264.7, read-out: AA Release Inhibition (%); for Effect on AA release (in words): 25 μM inhibitor; for Effect on AA release (in words) / IC50: Kdo2-Lipid A; for IC50: RAW264.7, RAW 264.7 cells, half maximal of the maximum inhibition observed
Excerpt: Arachidonic acid (AA) is the ideal metabolic indicator of GIVA cPLA2 activity, since it is the product of GIVA cPLA2-mediated catalysis. In addition to some of the new 2-oxoamides based on dipeptides and pseudodipeptides that were synthesized in this work, a series of potent 2-oxoamide in vitro inhibitors of GIVA cPLA2, previously reported by us, were further tested in a cellular ex vivo system to investigate whether they reduced cellular AA production. For this purpose, RAW 264.7 macrophages were preincubated with 25 μM concentrations of the inhibitor prior to treatment of the cells with Kdo2-Lipid A. Subsequently, AA release was quantitated from the supernatants.
RAW 264.7 macrophages were maintained in a humidified atmosphere at 37° C. with 5% CO2, as described elsewhere.^36 The cells were cultured in DMEM media that was supplemented with 10% fetal bovine serum, 2 mM glutamine, 100 units/mL penicillin, 100 μg/ml streptomycin, and non-essential amino acids. The cells were plated at a confluency of 2×10^6 cells per well in 6 well tissue culture plates and allowed to adhere overnight. Inhibitors were added to the medium 30 min before Kdo2-Lipid A was added and the supernatants were collected at 1 hour following stimulation. Subsequently, AA was extracted from the supernatants and quantitated by HPLC-MS, as described elsewhere.^36, 37 AA release levels were normalized to pmol AA release per million cells though DNA quantitation using the Broad Range DNA Quant-Kit (Invitrogen). IC50 values were determined by estimating the concentration of inhibitor required for half maximal inhibition of the maximum inhibition observed with a given inhibitor.

GIVA cPLA2 [2] = molecular target: T1, GIVA cPLA2; details: in vitro; inhibitors previously reported; also inhibit GVIA iPLA2 and GV sPLA2; cited from earlier work
[3] = 25 μM inhibitor preincubated, Kdo2-Lipid A stimulation, RAW 264.7 macrophages
[4] = read-out: IC50 for the inhibition of arachidonic acid release (text)
[5] = read-out: IC50 for the inhibition of arachidonic acid release

Structure (SMILES) | melting point [°C] | inhibition at 25 µM (RAW 264.7 macrophages; [3]) [%] | Effect on AA release (in words) (RAW 264.7 macrophages; RAW 264.7 macrophages) | IC50 (RAW 264.7 macrophages; [4]) [µM] | other results
CCCCCCCCCCCCCCC(=O)C(=O)N[C@@H](CCCC)C(=O)NCC(=O)OC [Compound 4a, (S)-Methyl 2-(2-(2-oxohexadecanamido)hexanamido)acetate] | 65 to 67 |  |  |  | GIVA cPLA2 X1(50) (GIVA cPLA2 [1]): 0.021 ± 0.009 mole fraction; GV sPLA2 % inhibition (GV sPLA2): 65%
CCCCCCCCCCCCCCC(=O)C(=O)N[C@H](C(=O)NCC(=O)OC)C(C)C [Compound 4b, (S)-Methyl-2-(3-methyl-2-(2-oxohexadecanamido)butanamido)-acetate] | 118 to 119 |  |  |  | GIVA cPLA2 % inhibition (GIVA cPLA2 [1]): 25%; inhibition at 0.091 mole fraction (GV sPLA2): < 25%
CCCCCCCCCCCCCCC(=O)C(=O)N[C@@H](CCCC)C(=O)NCC(=O)OCC [Compound 4c, (S)-Ethyl 2-(2-(2-oxohexadecanamido)hexanamido)acetate] | 63 to 65 |  |  |  | GIVA cPLA2 % inhibition (GIVA cPLA2 [1]): 73%; GV sPLA2 % inhibition (GV sPLA2): 63%
CCCCCCCCCCCCCCC(=O)C(=O)N[C@@H](CCCC)C(=O)NCC(=O)OC(C)(C)C [Compound 8a, (S)-tert-Butyl 2-(2-(2-oxohexadecanamido)hexanamido)acetate] | 38 to 39 |  |  |  | GIVA cPLA2 % inhibition (GIVA cPLA2 [1]): 72%; GV sPLA2 % inhibition (GV sPLA2): 59%
CCCCCCCCCCCCCCC(=O)C(=O)N[C@H](C(=O)NCC(=O)OC(C)(C)C)C(C)C [Compound 8b, (S)-tert-Butyl-2-(3-methyl-2-(2-oxohexadecanamido)butanamido)-acetate] | 58 to 61 | 30 |  |  | GIVA cPLA2 X1(50) (GIVA cPLA2 [1]): 0.028 ± 0.015 mole fraction; AA Release Inhibition (%) (RAW 264.7 macrophages; [3]): 30 ± 2%
CCCCCCCCCCCCCCC(=O)C(=O)N[C@@H](CCCC)C(=O)NCC(=O)O [Compound 9a, (S)-2-(2-(2-Oxohexadecanamido)hexanamido)acetic Acid] |  |  |  |  | GIVA cPLA2 X1(50) (GIVA cPLA2 [1]): 0.035 ± 0.014 mole fraction; inhibition at 0.091 mole fraction (GV sPLA2): < 25%
CCCCCCCCCCCCCCC(=O)C(=O)N[C@H](C(=O)NCC(=O)O)C(C)C [Compound 9b, (S)-2-(3-Methyl-2-(2-oxohexadecanamido)butanamido)acetic Acid] | 87 to 89 |  |  |  | GIVA cPLA2 X1(50) (GIVA cPLA2 [1]): 0.061 ± 0.017 mole fraction; inhibition at 0.091 mole fraction (GV sPLA2): < 25%
CCCCCCCCCCCCCCC(=O)C(=O)N[C@@H](CCCC)COCC(=O)OCC [Compound 13, (S)-Ethyl 2-(2-(2-oxohexadecanamido)hexyloxy)acetate] | 41 to 43 |  |  |  | GIVA cPLA2 % inhibition (GIVA cPLA2 [1]): 52%
CCCCCCCCCCCCCCC(=O)C(=O)N[C@@H](CCCC)COCC(=O)OC(C)(C)C [Compound 17, (S)-tert-Butyl 2-(2-(2-oxohexadecanamido)hexyloxy)acetate] |  |  |  |  | GIVA cPLA2 % inhibition (GIVA cPLA2 [1]): 44%; GV sPLA2 % inhibition (GV sPLA2): 57%
CCCCCCCCCCCCCCC(=O)C(=O)N[C@@H](CCCC)COCC(=O)O [Compound 18, (S)-2-(2-(2-oxohexadecanainido)hexyloxy)acetic Acid] | 64 to 66 | 68 | significant reduction of AA release | 2 | GIVA cPLA2 X1(50) (GIVA cPLA2 [1]): 0.017 mole fraction and 0.017 ± 0.002 mole fraction; inhibition at 0.091 mole fraction (GV sPLA2): < 25%
CCC(=O)C(=O)NCCCC(=O)O [Compound 19] |  | 52 ± 5 | significant reduction of AA release | ~25 | IC50 (RAW 264.7 macrophages; [5]): 25 µM
CCNC(=O)OC[C@@H](CCC(=O)OC)NC(=O)C(=O)CC [Compound 23] |  |  |  |  | Inhibition of GIVA cPLA2 (in words) (GIVA cPLA2 [2]): inhibit GIVA cPLA2 to a high extent, though not selectively
CCOC(=O)CCCNC(=O)C(=O)CC [Compound 24] |  |  |  |  | Inhibition of GIVA cPLA2 (in words) (GIVA cPLA2 [2]): inhibit GIVA cPLA2 to a high extent, though not selectively
CCC(=O)C(=O)N[C@H](CCC(=O)O)CC(C)C [Compound 25] |  | 62 ± 5 | significant reduction of AA release | ~25 | IC50 (RAW 264.7 macrophages; [5]): 25 µM
CCC[C@@H](CCC(=O)O)NC(=O)C(=O)CC [Compound 26] |  | 79 ± 0.5 | significant reduction of AA release | ~25 | IC50 (RAW 264.7 macrophages; [5]): 25 µM
CCC[C@@H](/C=C/C=C/C(=O)O)NC(=O)C(=O)CC [Compound 28] |  | 6 ± 10 |  |  | 
CCC[C@@H](/C=C/C(=O)O)NC(=O)C(=O)CC [Compound 30] |  | 74 ± 8 | significant reduction of AA release | ~25 | IC50 (RAW 264.7 macrophages; [5]): 25 µM
CCC[C@@H](CCCC(=O)O)NC(=O)C(=O)CC [Compound 35] |  |  | significant reduction of AA release | 7 | IC50 (RAW 264.7 macrophages; [5]): 7 µM
